Experiments:
rape = experiment: Test B pre/postemergence rape; type: in vivo, Brassica napus
Method in brief: (§1)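 Response is a visual 0-to-10 score relative to untreated plants, where 0 means no effect and 10 means complete control, taken twelve to sixteen days after application. Treatments went onto soil at planting and onto foliage of 1- to 4-leaf plants, using a surfactant-containing non-phytotoxic solvent.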

surinam grass = experiment: Test B pre/postemergence surinam grass; type: in vivo, Brachiaria decumbens
Method in brief: as §1

blackgrass = experiment: Test B pre/postemergence blackgrass; type: in vivo, Alopecurus myosuroides
Method in brief: as §1

corn = experiment: Test B pre/postemergence corn; type: in vivo, Zea mays
Method in brief: as §1

purple nutsedge = experiment: Test B pre/postemergence purple nutsedge; type: in vivo, Cyperus rotundus
Method in brief: as §1

morningglory = experiment: Test B pre/postemergence morningglory; type: in vivo, Ipomoea hederacea
Method in brief: as §1

soybean = experiment: Test B pre/postemergence soybean; type: in vivo, Glycine max
Method in brief: as §1

bedstraw = experiment: Test B pre/postemergence bedstraw; type: in vivo, Galium aparine
Method in brief: as §1

wheat = experiment: Test B pre/postemergence wheat; type: in vivo, Triticum aestivum
Method in brief: as §1

crabgrass = experiment: Test B pre/postemergence crabgrass; type: in vivo, Digitaria sanguinalis
Method in brief: as §1

wild oat = experiment: Test B pre/postemergence wild oat; type: in vivo, Avena fatua
Method in brief: as §1

giant foxtail = experiment: Test B pre/postemergence giant foxtail; type: in vivo, Setaria faberii
Method in brief: as §1

velvetleaf = experiment: Test B pre/postemergence velvetleaf; type: in vivo, Abutilon theophrasti
Method in brief: as §1

pigweed = experiment: Test B pre/postemergence pigweed; type: in vivo, Amaranthus retroflexus
Method in brief: as §1

cocklebur = experiment: Test B pre/postemergence cocklebur; type: in vivo, Xanthium strumarium
Method in brief: as §1

sugar beet = experiment: Test B pre/postemergence sugar beet; type: in vivo, Beta vulgaris
Method in brief: as §1

[1] = Postemergence, Rate 62 g/ha, scale 0 to 10, 0 is no effect, 10 is complete control
[2] = Postemergence, Rate 125 g/ha, scale of 0 to 10 where 0 is no effect and 10 is complete control
[3] = Postemergence, Rate 500 g/ha, scale 0 (no effect) to 10 (complete control)
[4] = Rate 62 g/ha, Preemergence, scale 0 to 10
[5] = Rate 125 g/ha, Preemergence, scale 0 to 10 (0 no effect, 10 complete control)
[6] = Rate 250 g/ha, Postemergence, scale 0 to 10, 0 is no effect, 10 is complete control
[7] = Rate 500 g/ha, Preemergence, scale 0 to 10 (0 no effect, 10 complete control)
[8] = Preemergence, Rate 250 g/ha, scale 0 (no effect) to 10 (complete control)

CCOC(CC)n1c(=O)on(C(=O)N(c2ccc(Cl)cc2)C(C)C)c1=O (stereo not drawn) [Compound 772]
2: Morningglory plant response rating (morningglory; [3])
0: Plant response rating, Rape (rape; [1]) | Rape plant response rating (rape; [2]) | Rape plant response rating (rape; [3]) | Rape plant response rating (rape; [4]) | Rape plant response rating (rape; [5]) | Rape plant response rating (rape; [6]) | Rape plant response rating (rape; [7]) | Plant response rating, B. signalgrass (surinam grass; [1]) | B. signalgrass plant response rating (surinam grass; [2]) | B. signalgrass plant response rating (surinam grass; [8]) | B. signalgrass plant response rating (surinam grass; Rate 62 g/ha, Preemergence, scale 0 (no effect) to 10 (complete control)) | B. signalgrass plant response rating (surinam grass; [5]) | B. signalgrass plant response rating (surinam grass; [6]) | B. signalgrass plant response rating (surinam grass; Rate 500 g/ha, Postemergence, scale 0 to 10, 0 is no effect, 10 is complete control) | B. signalgrass plant response rating (surinam grass; [7]) | Plant response rating, Blackgrass (blackgrass; [1]) | Blackgrass plant response rating (blackgrass; [2]) | Blackgrass plant response rating (blackgrass; [3]) | Blackgrass plant response rating (blackgrass; [8]) | Blackgrass plant response rating (blackgrass; [4]) | Blackgrass plant response rating (blackgrass; [5]) | Blackgrass plant response rating (blackgrass; [6]) | Blackgrass plant response rating (blackgrass; [7]) | Plant response rating, Corn (corn; [1]) | Corn plant response rating (corn; [2]) | Corn plant response rating (corn; [3]) | Corn plant response rating (corn; [8]) | Corn plant response rating (corn; [4]) | Corn plant response rating (corn; [5]) | Corn plant response rating (corn; [6]) | Corn plant response rating (corn; [7]) | Plant response rating, Nutsedge (purple nutsedge; [1]) | Nutsedge plant response rating (purple nutsedge; [2]) | Nutsedge plant response rating (purple nutsedge; [3]) | Nutsedge plant response rating (purple nutsedge; [4]) | Nutsedge plant response rating (purple nutsedge; [5]) | Nutsedge plant response rating (purple nutsedge; [6]) | Nutsedge plant response rating (purple nutsedge; [7]) | Plant response rating, Morningglory (morningglory; [1]) | Morningglory plant response rating (morningglory; [2]) | Morningglory plant response rating (morningglory; [4]) | Morningglory plant response rating (morningglory; [5]) | Morningglory plant response rating (morningglory; [6]) | Morningglory plant response rating (morningglory; [7]) | Plant response rating, Soybean (soybean; [1]) | Soybean plant response rating (soybean; [3]) | Soybean plant response rating (soybean; [4]) | Soybean plant response rating (soybean; [5]) | Soybean plant response rating (soybean; [6]) | Soybean plant response rating (soybean; [7]) | Plant response rating, Bedstraw (bedstraw; [1]) | Bedstraw plant response rating (bedstraw; [2]) | Bedstraw plant response rating (bedstraw; [3]) | Bedstraw plant response rating (bedstraw; [8]) | Bedstraw plant response rating (bedstraw; [4]) | Bedstraw plant response rating (bedstraw; [5]) | Bedstraw plant response rating (bedstraw; [6]) | Bedstraw plant response rating (bedstraw; [7]) | Plant response rating, Wheat (wheat; [1]) | Wheat plant response rating (wheat; [3]) | Wheat plant response rating (wheat; [4]) | Wheat plant response rating (wheat; [5]) | Wheat plant response rating (wheat; [6]) | Wheat plant response rating (wheat; [7]) | Plant response rating, Crabgrass (crabgrass; [1]) | Crabgrass plant response rating (crabgrass; [2]) | Crabgrass plant response rating (crabgrass; [3]) | Crabgrass plant response rating (crabgrass; [8]) | Crabgrass plant response rating (crabgrass; [4]) | Crabgrass plant response rating (crabgrass; [5]) | Crabgrass plant response rating (crabgrass; [6]) | Crabgrass plant response rating (crabgrass; [7]) | Plant response rating, Wild oats (wild oat; [1]) | Wild oats plant response rating (wild oat; [3]) | Wild oats plant response rating (wild oat; [4]) | Wild oats plant response rating (wild oat; [5]) | Wild oats plant response rating (wild oat; [6]) | Wild oats plant response rating (wild oat; [7]) | Plant response rating, Giant foxtail (giant foxtail; [1]) | Giant foxtail plant response rating (giant foxtail; [2]) | Giant foxtail plant response rating (giant foxtail; [3]) | Giant foxtail plant response rating (giant foxtail; [8]) | Giant foxtail plant response rating (giant foxtail; [4]) | Giant foxtail plant response rating (giant foxtail; [5]) | Giant foxtail plant response rating (giant foxtail; [6]) | Giant foxtail plant response rating (giant foxtail; [7]) | Plant response rating, Velvetleaf (velvetleaf; [1]) | Velvetleaf plant response rating (velvetleaf; [3]) | Velvetleaf plant response rating (velvetleaf; [4]) | Velvetleaf plant response rating (velvetleaf; [5]) | Velvetleaf plant response rating (velvetleaf; [6]) | Velvetleaf plant response rating (velvetleaf; [7]) | Plant response rating, Redroot pigweed (pigweed; [1]) | Redroot pigweed plant response rating (pigweed; [2]) | Redroot pigweed plant response rating (pigweed; [3]) | Redroot pigweed plant response rating (pigweed; [4]) | Redroot pigweed plant response rating (pigweed; [5]) | Redroot pigweed plant response rating (pigweed; [6]) | Redroot pigweed plant response rating (pigweed; [7]) | Plant response rating, Cocklebur (cocklebur; [1]) | Cocklebur plant response rating (cocklebur; [2]) | Cocklebur plant response rating (cocklebur; [3]) | Cocklebur plant response rating (cocklebur; [8]) | Cocklebur plant response rating (cocklebur; [4]) | Cocklebur plant response rating (cocklebur; [5]) | Cocklebur plant response rating (cocklebur; [6]) | Cocklebur plant response rating (cocklebur; [7]) | Plant response rating, Sugarbeets (sugar beet; [1]) | Sugarbeets plant response rating (sugar beet; [3]) | Sugarbeets plant response rating (sugar beet; [4]) | Sugarbeets plant response rating (sugar beet; [5]) | Sugarbeets plant response rating (sugar beet; [6]) | Sugarbeets plant response rating (sugar beet; [7])

— patent publication US6737383B1, “Herbicidal oxadiazolidines” (priority 1999, dated 2004)
